“And” between values parts separate entries of the source, which are not always exact repeats. Identical values can stand only once.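 Method: 48-hour compound exposure of cells in 96-well plates, five concentrations, linear interpolation of endpoints. GI50: concentration for 50% inhibition of growth. TGI: concentration producing complete growth inhibition.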
Columns and labels:
Assay in all cases: NCI anticancer screen, dose series, 48 h
A549 NSCLC = system: A549 NSCLC
ACHN renal = system: ACHN renal
BT-549 breast = system: BT-549 breast
CCRF-CEM leukemia = system: CCRF-CEM leukemia
HCT-15 colon = system: HCT-15 colon
HOP-62 NSCLC = system: HOP-62 NSCLC
HOP-92 NSCLC = system: HOP-92 NSCLC
RXF 393 renal = system: RXF 393 renal
SF-268 CNS = system: SF-268 CNS
SK-MEL-2 melanoma = system: SK-MEL-2 melanoma

SMILES | GI50 (A549 NSCLC) | TGI (A549 NSCLC) [µM] | GI50 (ACHN renal) | TGI (ACHN renal) [µM] | GI50 (BT-549 breast) | TGI (BT-549 breast) [µM] | GI50 (CCRF-CEM leukemia) | TGI (CCRF-CEM leukemia) [µM] | GI50 (HCT-15 colon) | TGI (HCT-15 colon) [µM] | GI50 (HOP-62 NSCLC) | TGI (HOP-62 NSCLC) [µM] | GI50 (HOP-92 NSCLC) [µM] | TGI (HOP-92 NSCLC) [µM] | GI50 (RXF 393 renal) | TGI (RXF 393 renal) | GI50 (SF-268 CNS) | TGI (SF-268 CNS) [µM] | GI50 (SK-MEL-2 melanoma) | TGI (SK-MEL-2 melanoma)
Nc1nccc(-c2c(-c3ccc(F)cc3)ncn2C2CCNCC2)n1 | 1.97 µM and 1.66 µM | > 25 | 7.61 µM and 1.41 µM | > 25 | 17.2 µM and 12 µM | > 25 | 13.2 µM and 4.52 µM | > 25 | > 25 µM and 6.43 µM | > 25 | 5.29 µM and 3.85 µM | > 25 | 3.07 | > 25 | 2.35 µM and 3.6 µM | > 25 µM and 10.5 µM | 5.92 µM and 2.76 µM | > 25 | 13.6 µM and 3.64 µM | > 25 µM and 13 µM
CCN(CC)c1ccc(/C=N/NC(=O)CSc2nc3ccccc3c(=O)n2CCc2ccc(S(N)(=O)=O)cc2)c(O)c1 | 3.1 µM | > 100 | 1.75 µM | > 100 | 2.21 µM | > 100 | 0.326 µM | 4.35 | 2.82 µM | > 100 | 1.86 µM | > 100 | 2.15 | 75.2 | 2.17 µM | 32.2 µM | 2.05 µM | > 100 | 4.34 µM | > 100 µM
CC(C)c1[nH]nc(C(N)=O)c1N=NN(C)C |  | > 100 |  | > 100 |  | > 100 |  | > 100 |  | > 100 |  | > 100 |  | > 100 |  | > 100 µM |  | > 100 |  | > 100 µM
CCN(Cc1ccc(C)cc1)c1ccc(CO)c(Cl)c1 | 1.55 µM | 16.2 | 10.1 µM | 23.2 | 5 µM | 19 | 15.9 µM | 51.3 | 6.41 µM | 23.2 | 0.779 µM | 16.4 | 1.86 | 15.3 | 4.71 µM | 18.9 µM | 15 µM | 30.3 | 2.2 µM | 16.2 µM
NNC(=S)N/N=C(\C(=O)Nc1cccc(O)c1)C1C(=O)NC(=S)NC1=O |  | > 100 |  | > 100 |  | > 100 |  | > 100 |  | > 100 |  | > 100 |  | > 100 |  | > 100 µM |  | > 100 |  | > 100 µM
CC(C)(Br)C(=O)N1CCN(C(c2ccccc2)c2ccccc2)CC1 |  | > 100 |  | > 100 |  | > 100 |  | > 100 |  | > 100 |  | > 100 |  | > 100 |  | 81.2 µM |  | > 100 |  | > 100 µM
COc1ccc2c(c1OC)C[C@@H]1c3c(cc4c(c3-2)OCO4)CCN1C |  | > 100 |  | > 100 |  | > 100 |  | 51.6 |  | > 100 |  | > 100 |  | 68.1 |  | 66.4 µM |  | > 100 |  | 88.7 µM
CC(=O)O[C@H]1C(=O)[C@@]2(C)C(C(OC(=O)c3ccccc3)[C@]3(O)C[C@H](OC(=O)C(OC(=O)CCCC(=O)NCCCN(C)C)C(NC(=O)c4ccccc4)c4ccccc4)C(C)=C1C3(C)C)C1(OC(C)=O)COC1C[C@@H]2O (stereo not given in full) |  | > 85.3 |  | > 100 |  | 31.9 |  | 9.58 |  | 19.2 |  | 11.4 |  | 37.2 |  | 3.27 µM |  | 75.3 |  | 24.3 µM
COc1ccc(/C=C(/C#N)C(N)=O)c(OC)c1 |  | > 100 |  | > 100 |  | > 100 |  | > 100 |  | > 100 |  | > 100 |  | > 100 |  | > 100 µM |  | > 100 |  | > 100 µM
COc1cc(Nc2nc3cc(N)cc(N)c3nc2-c2ccccc2)cc(OC)c1OC | 29.8 µM | > 100 | 16.7 µM | 43 | 16.8 µM | 33.6 | 4.4 µM | 42 | 15.3 µM | 45.4 | 16.3 µM | 34.3 | 2.73 | 21 | 14.4 µM | 34.4 µM | 18.1 µM | 60.8 | 15.9 µM | 35.2 µM
C=C1CC[C@@H]2[C@](C)(COC(C)=O)[C@H](OC(C)=O)CC[C@@]2(C)[C@@H]1CC(Nc1ccc(S(=O)(=O)NC(C)=O)cc1)C1=CCOC1=O (stereo not given in full) | 8.41 µM | 18.3 | 7.54 µM | 16.5 | 2.32 µM | 7.93 | 1.93 µM | 6.26 | 1.53 µM | 4.36 | 10.8 µM | 21.1 | 6.5 | 15.8 | 1.96 µM | 4.69 µM | 8.78 µM | 20.5 | 8.68 µM | 19.1 µM
COc1ccc(/C=C/C(=O)c2cc(OC)c(OC)c(OC)c2)cc1OCC(=O)Nc1nc2ccc(OC(F)(F)F)cc2s1 | 1.99 µM | 4.7 | 1.62 µM | 3.85 | 2.71 µM | 29.6 | 2.5 µM | > 100 | 0.407 µM | 10.9 | 2.12 µM | 4.33 | 2.14 | 7.32 | 1.58 µM | 3.74 µM | 1.2 µM | 8.5 | 4.97 µM | 27.1 µM
Cc1cc2nc3c4cc(O)ccc4n(CCN(C)C)c3nc2cc1C | 0.78 µM | 5.07 | 0.408 µM | 10.3 | 2.03 µM | 6.27 | 0.518 µM | 6 | 0.611 µM | 4.1 | 0.676 µM | 12.4 | 0.287 | 2.62 | 0.828 µM | 2.47 µM | 1.25 µM | 5.89 | 1.65 µM | 3.69 µM

Source: PubChem BioAssay (NCI)
